Patent publication US8119400B2, “Methods of inhibiting smooth muscle cell migration and proliferation” (Beth Isreal Deaconess Medical Center, Inc., priority 2005, dated 2012)
“Also recorded” adds a separate entry of the source. No end group written: not given here. *: point of attachment. Myristoyl = CCCCCCCCCCCCCC(=O)*; {P} = phosphate

Key:
[1] = test system: VSMCs in human saphenous vein; experiment: Proliferation after ex vivo siRNA transfection of whole vein; format: cell-based; details: 100 nM, three days after transfection, vs control siRNA
MARCKS mRNA [2] = experiment: MARCKS mRNA knockdown after lipofection, HVSMCs (qRT-PCR); format: cell-based, human; details: 100 nM, 24 hours after lipofection
Method: (§1) MARCKS knockdown was achieved by lipofection of HVSMCs and HECs with MARCKS siRNA. Lipofection was performed using the DharmAFECT1 transfection reagent (Dharmacon) for 24 hours in serum- and antibiotic-free media as per manufacturer's protocol.
(§2) Evaluation of target gene mRNA knockdown after siRNA delivery was analyzed using a Stratagene MX3000P real time PCR (qRT-PCR) machine (Stratagene, La Jolla, Calif.). Total RNA was extracted from plate wells using RNeasy spin columns (Qiagen, Valencia, Calif.) and cDNA was prepared from […] using the iScript cDNA synthesis kit (Bio-Rad, Hercules, Calif.) prior to thermal cycling. For quantitative analysis, target gene levels were normalized to 18s or B2M levels as previously described (Bustin, S A et al. (2004) J. Mol. Endocrinol. 29(1):23-39), and target and housekeeper gene amplification reactions were performed in triplicate for each cDNA sample using 1 μl cDNA per reaction. […]
(§3) Thermal cycling was performed under the following conditions: Stage 1: 10 minutes at 95° C.; Stage 2 (40 cycles): 30 seconds at 95° C., 1 minute at 60° C., 30 seconds at 72° C. The Comparative Quantification software tool was used to compare normalized gene levels from cells transfected with targeting siRNA vs. non-targeting control siRNA (calibrators). […]

MARCKS mRNA [3] = experiment: MARCKS mRNA knockdown after lipofection, HECs (qRT-PCR); format: cell-based, human; details: 5 nM, 24 hours after lipofection
Method: as §1, §2, §3

MARCKS protein [4] = experiment: MARCKS protein Western blot, HVSMCs; format: cell-based, human; details: 100 nM, 3 days after lipofection
Method: as §1
(§4) Cell extracts were recovered from 6-well plates after siRNA lipofection and analyzed by sodium dodecyl sulfate-polyacrylamide gel electrophoresis (SDS-PAGE) and Western blotting with the use of standard techniques. Antibodies used for protein detection were: mouse monoclonal anti-GAPDH (1:10,000 dilution, Ambion), goat polyclonal anti-MARCKS (N-19) IgG (1:100 dilution, Santa Cruz Biotechnology, Santa Cruz, Calif.), mouse monoclonal anti-p27^kip-1 (1:250 dilution, Pharmingen, San Diego, Calif.) and mouse anti-β-tubulin IgM (clone 5H1) (1:250 dilution, Pharmingen, San Diego, Calif.). Secondary antibodies used were peroxidase-conjugated goat anti-mouse IgG (H+L) (1:1,000-1:5,000 dilution, Chemicon International, Temecula, Calif.) and peroxidase-conjugated rabbit anti-goat IgG (H+L) (1:500 dilution, Bio-Rad). Densitometry was performed using Adobe Photoshop 6.0 or NIH Image J 1.34.

MARCKS protein [5] = experiment: MARCKS protein Western blot, HECs; format: cell-based, human; details: 25 nM, 3 days after lipofection
Method: as §1, §4

HVSMCs [6] = experiment: Fluoroblok migration assay, HVSMCs; format: cell-based, human; details: 100 nM, 3 days after lipofection, 30% FBS
Method: The migratory and proliferative abilities of HVSMCs and HECs were assessed after MARCKS knockdown using migration and proliferation assays. Phenotypic analysis of HVSMC migration was performed using the Fluoroblok migration assay (BD Biosciences, San Jose, Calif.) to measure the ability of calcein-AM fluorescently-labeled cells to migrate through a PET membrane with […] towards a chemotactant stimulus of 30% FBS. Briefly, VSMCs were incubated in 10 μM calcein-AM (Invitrogen) for 1 hour, trypsinized, and resuspended in serum-free VSMC media. In this assay, the upper chamber of the Transwell insert is separated from the lower chamber by a fluorescently opaque polyethyleneterephthalate (PET) membrane with 8 μm pores at the base of the insert. Approximately 50,000 VSMCs were loaded in each of the upper wells. The lower wells contained media supplemented with serum-free VSMC media, VSMC media with 30% FBS, or EC-conditioned media to stimulate cell migration. At time 0, the upper chambers were read at an excitation of 485 nm and an emission of 535 nm on a Biotek Fluorometer FLX800 (BioTek Instruments) and returned to the incubator. After 24 hours, the lower chambers were read with the same settings. The proportion of cells migrated were calculated by dividing the fluorescent intensity after 24 hours by the intensity read at time 0. […]

HECs [7] = experiment: Fluoroblok migration assay, HECs; format: cell-based, human
HVSMCs [8] = experiment: alamarBlue proliferation assay, HVSMCs; format: cell-based, human
Method: Phenotypic analysis of vascular cell proliferation was performed using the alamarBlue assay (Trek Diagnostics, Cleveland, Ohio), as previously described (Voytik-Harbin, SL et al. (1998) In Vitro Cell Dev. Biol. Anim. 34(3):239-246), to quantitate total cellular metabolic activity in the wells of tissue culture plates. Briefly, HVSMCs were plated on 24-well plates at a density of 10,000 cells per well and grown for 24 hours in normal cell media. Afterwards, a Day 0 measurement of fluorescent intensity after 4 hour incubation with the alamarBlue reagent was obtained prior to siRNA lipofection. 24 hour siRNA lipofection in serum-free media served as the starvation period to synchronize cells in the cell cycle, followed by the application of media with 30% FBS to stimulate proliferation. AlamarBlue assays were performed every two days, followed by the reapplication of fresh media with 30% FBS. For analysis, the fluorescence intensity of each well was determined using an LS-5B Luminescence Spectrometer (PerkinElmer) at excitation and emission wavelengths of 509 and 590 nm, respectively, and was divided by the value obtained at Day 0 to generate a measure of relative proliferation.

HECs [9] = experiment: alamarBlue proliferation assay, HECs; format: cell-based, human; details: 25 nM
p27^kip1 [10] = experiment: p27kip1 Western blot after MARCKS knockdown, HVSMCs; format: cell-based, human; details: 25 nM, 24 hours post-induction with 30% FBS, GAPDH corrected densitometry
Method: (§5) To investigate the differential effects of MARCKS knockdown on the proliferation of vascular cells, Western blots were performed to assess p27^kip1 expression after the induction of proliferation in HVSMCs and HECs. To assess p27^kip1 expression in the setting of MARCKS knockdown, HVSMC and HECs were transfected with 25 nM Control (C) or MARCKS (M) siRNA followed by 48 hour starvation in media with 0.1% FBS to synchronize cells in the Go phase of the cell cycle. Proliferation was then induced by the addition of media with 30% FBS and cells were lysed 24 hours post-induction for protein harvest and Western blot analysis.
as §4, with “Secondary antibodies used were peroxidase-conjugated goat anti-mouse IgG (H+L) (1:1,000-1:5,000 dilution, Chemicon International, Temecula, Calif.) and peroxidase-conjugated rabbit anti-goat IgG (H+L) (1:500 dilution, Bio-Rad). Densitometry was performed using Adobe Photoshop 6.0 or NIH Image J 1.34.” left out

p27^kip1 [11] = experiment: p27kip1 Western blot after MARCKS knockdown, HECs; format: cell-based, human; details: 25 nM, 24 hours post-induction with 30% FBS, GAPDH corrected densitometry
Method: as §5
as §4, with “Secondary antibodies used were peroxidase-conjugated goat anti-mouse IgG (H+L) (1:1,000-1:5,000 dilution, Chemicon International, Temecula, Calif.) and peroxidase-conjugated rabbit anti-goat IgG (H+L) (1:500 dilution, Bio-Rad). Densitometry was performed using Adobe Photoshop 6.0 or NIH Image J 1.34.” left out

MARCKS mRNA [12] = experiment: Rapid siRNA transfection, MARCKS mRNA knockdown, HVSMCs; format: cell-based, human; details: 10 minutes, 2000 cells per well
Method: (§6) To more rigorously study the effects of pressure on gene silencing in vascular cells and develop an in vitro model for rapid siRNA transfection, a chamber that could hold standard tissue culture plates and be pressurized with wall air was fabricated. HVSMCs and HECs were seeded in 96-well plates at a density of 6,000 cells/cm^2 and were treated with Control or MARCKS siRNA suspended in normal saline solution, without the addition of a transfection reagent, at concentrations from 1-25 μM in either water, lactate ringers solution (Baxter, Deerfield, Ill.), normal saline (Baxter), cell media, or Plasmalyte A (Baxter) supplemented with 12 mg/ml papaverine hydrochloride and 4 units/ml heparin sodium (LoGerfo, FW et al. (1984) Arch. Surg. 119(10):1212-1214). First, siRNA solutions were applied to one plate of each cell type and rapid siRNA transfection was performed by placing cells in the specially-designed pressure chamber for 10 minutes while raising the ambient pressure by 0-1 ATM using wall air. Cells were then removed from the chamber and the siRNA solution was promptly aspirated and replaced with fresh media prior to returning the plates to the incubator. Parallel plates were subjected the same siRNA treatment and placed in the chamber for 10 minutes without pressurization.
(§7) Evaluation of target gene mRNA knockdown was performed as described in Example 8 above.

MARCKS mRNA [13] = experiment: Rapid siRNA transfection, MARCKS mRNA knockdown, HECs; format: cell-based, human; details: 10 minutes, 2000 cells per well
Method: as §6, §7

VSMCs [14] = details: 100 μM, 24 hours, FBS and TNF-α stimulus
Method: To assess cellular migration, a fluorescent migration assay (BD Biosciences, San Jose, Calif.) was utilized. In this assay, VSMC's grown in culture were labeled with 1 μM calcein. Approximately 50,000 cells, suspended in serum free media, were loaded onto a 0.3 cm^2 insert. The surface of the insert is a fluorescently-opaque polyethylene terephthalate (PET) membrane with 8 μm pores that are sufficiently large to permit cells to migrate across its surface. The insert was placed in a tissue culture plate with a chemotactic stimulus, TNF-α, in the lower well, which contained media with 30% FBS and TNF-A at a concentration of 200 Units/ml. Immediately after the inserts were placed into the respective wells, the wells were excited at a wavelength of 485 nm and the fluorescence emission was read at 535 nm. At the order of magnitude of cells that were used, the fluorescence is proportional to cell number in a linear relationship. After 24 hours, the plate was excited a second time and emission at 535 nm was read. Fluorescence was read only from the bottom well, such that only cells that have migrated contribute to the measured fluorescence. The proportion of cells that migrated was determined by dividing the fluorescence of the bottom of the wells at 24 hours by the initial fluorescence from the top of the wells at the time of plating. […]

VSMCs [15] = details: 100 μM, after 5 days of serum stimulation
Method: When it is reduced, it emits fluorescence at 590 nm. Therefore, emission at 590 nm was used as a marker for relative cellular proliferation. Cells were incubated in the dark in media containing 10% alamarBlue (BioSource International, Carmilla, Calif.) and 10% FBS for four hours. After incubation, 1 ml of media from the incubated cells was mixed with 1 ml of media containing 10% FBS and the emission at 590 nm was recorded.
A time-zero alamarBlue Assay was performed after a 12-hour period of starvation to assure equal cell loading and synchronization in the cell cycle. The cells were incubated with predetermined concentrations of the PKC inhibitor, 20-28. Cells were incubated in media with 30% FBS for a total of 24 hours. At that point, alamarBlue assays were performed at predetermined intervals. After each assay was completed, the media was replenished with media containing 30% FBS. As in the migration assay, an unstimulated, negative control with standard media was assayed.
To inhibit the effects of MARCKS activity, cells in culture were treated with the protein kinase C inhibitor 20-28 (Calbiochem, La Jolla, Calif.). […] Eichholtz, T. et al. (1993) J. Biol. Chem. 268:1982-1986.

Row | Substance | effect on proliferation in transfected vein [1] | MARCKS mRNA knockdown (MARCKS mRNA [2]) | MARCKS mRNA knockdown (MARCKS mRNA [3]) | MARCKS protein knockdown (Western blot) (MARCKS protein [4]) | MARCKS protein knockdown (Western blot) (MARCKS protein [5]) | cellular migration, % of controls (HVSMCs [6]) | effect on cellular migration (HECs [7]; 25 nM (FIG. 14B also 10 nM), vs control siRNA) | relative cellular migration (HECs [7]; 25 nM, 5% FBS with 200 ng/ml VEGF) | effect on HVSMC proliferation (HVSMCs [8]; 25 nM (FIG. 15A: 25, 50 and 100 nM), vs control scrambled siRNA) | proliferation, fold increase at day 6 (HVSMCs [8]; HVSMCs, 25 nM, 30% FBS, relative to Day 0) | effect on HEC proliferation (HECs [9]; full MARCKS knockdown) | proliferation, fold increase at day 6 (HECs [9]; HECs, relative to Day 0) | increase in p27^kip1 protein expression relative to controls (p27^kip1 [10]) | increase in p27^kip1 protein expression relative to controls (p27^kip1 [11]) | MARCKS knockdown (MARCKS mRNA [12]; 0 ATM) | MARCKS knockdown (MARCKS mRNA [12]; 0.4 ATM) | MARCKS knockdown (MARCKS mRNA [13]; 0 ATM) | MARCKS knockdown (MARCKS mRNA [13]; 0.4 ATM) | proportion of cells migrated across the membrane (VSMCs [14]) | emission at 590 nm (alamarBlue) (VSMCs [15])
1 | MARCKS siRNA: siRNA, sense 5′-GGU-GCC-CAG-UUC-UCC-AAG-AUU-3′ (SEQ ID NO. 18), anti-sense SEQ ID NO. 19 with 5′ phosphate (sense GGUGCCCAGUUCUCCAAGAUU; antisense UCUUGGAGAACUGGGCACCUU; sense: chemistry not given here; antisense: 5' {P}, sugars by position and backbone not given here) | reduced proliferation | 54±2% | 89±1% | complete knockdown | complete knockdown | 68±7% | no significant effect; also recorded: no significant difference | 1.0±0.7 | near complete arrest | 1.41±0.36 fold | only a minimal effect | 1.90±0.06 fold | 3.2 fold | 1.8 fold | 0±12% | 41±12% | 22±17% | 53±10% |  | 
2 | Myristoyl-FARKGALRQ [20-28] |  |  |  |  |  |  |  |  |  |  |  |  |  |  |  |  |  |  | 6.9%±1.5% | 58.0±12.1
